Assay results taken from the supplement of paper PMC10883282.

What was measured:
Test in all cases: relative viability vs DMSO control (72 h) (fraction); higher = more viable cells
[1] = test system: SK-LMS-1
In short: (§1)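 After seeding at densities set for 80–90% confluence in 384-well plates, sarcoma cell lines waited 24 h before 2.5 µl of serially diluted compound was added. Source plates held 10 mM down to 0.0002 mM. Plates were incubated 72 h at 37 °C with 5% CO2, with 0.1% DMSO vehicle and a 5 µM positive control, and relative viability was taken from ATPLite as percent growth averaged over up to triplicate wells, with 1 set as full and 0 as none.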

[2] = test system: G401
In short: as §1

[3] = test system: RD-ES
In short: as §1

[4] = test system: KHOS-NP
In short: as §1

[5] = test system: SW872
In short: as §1

[6] = test system: MES-SA
In short: as §1

[7] = test system: VA-ES-BJ
In short: as §1

[8] = test system: SW1353
In short: as §1

[9] = test system: HT1080
In short: as §1

[10] = test system: RD
In short: as §1

[11] = test system: SW684
In short: as §1

[12] = test system: SK-ES-1
In short: as §1

CN(C)CCCOc1ccc(-c2ccc3ncc4c(c3c2)n(C2CCOCC2)c(=O)n4C)cn1 [AZD-0156]
Settings	relative viability
[1], 0.00017 µM	0.969
[1], 0.00051 µM	1.01
[1], 0.00152 µM	0.962
[1], 0.00457 µM	0.976
[1], 0.01372 µM	0.891
[1], 0.04115 µM	0.881
[1], 0.1235 µM	0.7368
[1], 0.3704 µM	0.743
[1], 1.111 µM	0.665
[1], 3.333 µM	0.7995
[1], 10 µM	0.674
[2], 0.00017 µM	1.08
[2], 0.00051 µM	1.06
[2], 0.00152 µM	1.06
[2], 0.00457 µM	1.05
[2], 0.01372 µM	1.06
[2], 0.04115 µM	1.05
[2], 0.1235 µM	1.03
[2], 0.3704 µM	1.01
[2], 1.111 µM	0.968
[2], 3.333 µM	1.01
[2], 10 µM	0.9515
[3], 0.00017 µM	0.944
[3], 0.00051 µM	1.01
[3], 0.00152 µM	1.03
[3], 0.00457 µM	1
[3], 0.01372 µM	0.861
[3], 0.04115 µM	0.839
[3], 0.1235 µM	0.7218
[3], 0.3704 µM	0.69
[3], 1.111 µM	0.616
[3], 3.333 µM	0.548
[3], 10 µM	0.36
[4], 0.00017 µM	1.1
[4], 0.00051 µM	1.107
[4], 0.00152 µM	1.09
[4], 0.00457 µM	1.1
[4], 0.01372 µM	1.09
[4], 0.04115 µM	1.088
[4], 0.1235 µM	1.11
[4], 0.3704 µM	1.09
[4], 1.111 µM	1.03
[4], 3.333 µM	1.02
[4], 10 µM	0.764
[5], 0.00017 µM	1.06
[5], 0.00051 µM	1.05
[5], 0.00152 µM	1.06
[5], 0.00457 µM	1.03
[5], 0.01372 µM	0.941
[5], 0.04115 µM	0.892
[5], 0.1235 µM	0.808
[5], 0.3704 µM	0.654
[5], 1.111 µM	0.476
[5], 3.333 µM	0.398
[5], 10 µM	0.26
[6], 0.00017 µM	1.023
[6], 0.00051 µM	1.02
[6], 0.00152 µM	0.955
[6], 0.00457 µM	1.02
[6], 0.01372 µM	0.935
[6], 0.04115 µM	0.97
[6], 0.1235 µM	0.901
[6], 0.3704 µM	0.813
[6], 1.111 µM	0.716
[6], 3.333 µM	0.848
[6], 10 µM	0.654
[7], 0.00017 µM	1.118
[7], 0.00051 µM	1.11
[7], 0.00152 µM	1.09
[7], 0.00457 µM	1.09
[7], 0.01372 µM	1.04
[7], 0.04115 µM	0.949
[7], 0.1235 µM	0.81
[7], 0.3704 µM	0.674
[7], 1.111 µM	0.462
[7], 3.333 µM	0.453
[7], 10 µM	0.348
[8], 0.00017 µM	1.1
[8], 0.00051 µM	1.07
[8], 0.00152 µM	1.05
[8], 0.00457 µM	1.07
[8], 0.01372 µM	1.01
[8], 0.04115 µM	1.02
[8], 0.1235 µM	0.97
[8], 0.3704 µM	0.951
[8], 1.111 µM	0.883
[8], 3.333 µM	0.949
[8], 10 µM	0.865
[9], 0.00017 µM	1.04
[9], 0.00051 µM	1.1
[9], 0.00152 µM	1.091
[9], 0.00457 µM	1.12
[9], 0.01372 µM	1.09
[9], 0.04115 µM	1.09
[9], 0.1235 µM	1.07
[9], 0.3704 µM	1.06
[9], 1.111 µM	1.09
[9], 3.333 µM	1.11
[9], 10 µM	1.026
[10], 0.00017 µM	1.04
[10], 0.00051 µM	1.08
[10], 0.00152 µM	1.07
[10], 0.00457 µM	1.1
[10], 0.01372 µM	1.08
[10], 0.04115 µM	1.11
[10], 0.1235 µM	1.07
[10], 0.3704 µM	1.076
[10], 1.111 µM	0.949
[10], 3.333 µM	0.592
[10], 10 µM	0.536
[11], 0.00017 µM	1.16
[11], 0.00051 µM	1.17
[11], 0.00152 µM	1.17
[11], 0.00457 µM	1.19
[11], 0.01372 µM	1.13
[11], 0.04115 µM	1.16
[11], 0.1235 µM	0.994
[11], 0.3704 µM	0.963
[11], 1.111 µM	0.835
[11], 3.333 µM	0.918
[11], 10 µM	0.788
[12], 0.00017 µM	1.07
[12], 0.00051 µM	1.06
[12], 0.00152 µM	0.963
[12], 0.00457 µM	1
[12], 0.01372 µM	0.828
[12], 0.04115 µM	0.815
[12], 0.1235 µM	0.734
[12], 0.3704 µM	0.643
[12], 1.111 µM	0.59
[12], 3.333 µM	0.626
[12], 10 µM	0.522
